Reference: publication PMC12514245, “Impaired migration and lung invasion of human melanoma by a novel small molecule targeting the transmembrane domain of death receptor p75^NTR” (EMBO Molecular Medicine, 2025)

System: A875 shp75 cells
Experiment: Wound healing cell motility assay, A875 shp75
Assay type: cell-based, human
Procedure: For wound healing assay, cells were grown until confluency and subjected to a wound across the cell mono-layer. Cells were then incubated with serum-free media either with DMSO or a small molecule (with or without 5 µM Q_VD_poH) and imaged at specific time-points. Cell migration is reflected as fold change in wound area over time.

## Cc1cccc(-c2cncc(Nc3ccc(Br)c(Cl)c3Cl)n2)c1C [Np75-4A22]
A875 shp75, 1uM, 12 h, n2
  Wound area (Fold): 0.785 Fold
A875 shp75, 1uM, 12 h, n3
  Wound area (Fold): 0.763 Fold
A875 shp75, 1uM, 15 h, Mean
  Wound area (Fold): 0.718 Fold
A875 shp75, 1uM, 15 h, n1
  Wound area (Fold): 0.696 Fold
A875 shp75, 1uM, 15 h, n2
  Wound area (Fold): 0.752 Fold
A875 shp75, 1uM, 15 h, n3
  Wound area (Fold): 0.705 Fold
A875 shp75, 1uM, 18 h, Mean
  Wound area (Fold): 0.698 Fold
A875 shp75, 1uM, 18 h, n1
  Wound area (Fold): 0.664 Fold
A875 shp75, 1uM, 18 h, n2
  Wound area (Fold): 0.709 Fold
A875 shp75, 1uM, 18 h, n3
  Wound area (Fold): 0.721 Fold
A875 shp75, 1uM, 21 h, Mean
  Wound area (Fold): 0.669 Fold
A875 shp75, 1uM, 21 h, n1
  Wound area (Fold): 0.640 Fold
A875 shp75, 1uM, 21 h, n2
  Wound area (Fold): 0.695 Fold
A875 shp75, 1uM, 21 h, n3
  Wound area (Fold): 0.673 Fold
A875 shp75, 1uM, 24 h, Mean
  Wound area (Fold): 0.638 Fold
A875 shp75, 1uM, 24 h, n1
  Wound area (Fold): 0.601 Fold
A875 shp75, 1uM, 24 h, n2
  Wound area (Fold): 0.671 Fold
A875 shp75, 1uM, 24 h, n3
  Wound area (Fold): 0.643 Fold
A875 shp75, 2uM, 0 h, Mean
  Wound area (Fold): 1.000 Fold
A875 shp75, 2uM, 0 h, n1
  Wound area (Fold): 0.9754 Fold
A875 shp75, 2uM, 0 h, n2
  Wound area (Fold): 1.0649 Fold
A875 shp75, 2uM, 0 h, n3
  Wound area (Fold): 0.9597 Fold
A875 shp75, 2uM, 3 h, Mean
  Wound area (Fold): 0.910 Fold
A875 shp75, 2uM, 3 h, n1
  Wound area (Fold): 0.9076 Fold
A875 shp75, 2uM, 3 h, n2
  Wound area (Fold): 0.9176 Fold
A875 shp75, 2uM, 3 h, n3
  Wound area (Fold): 0.9063 Fold
A875 shp75, 2uM, 6 h, Mean
  Wound area (Fold): 0.853 Fold
A875 shp75, 2uM, 6 h, n1
  Wound area (Fold): 0.8581 Fold
A875 shp75, 2uM, 6 h, n2
  Wound area (Fold): 0.8655 Fold
A875 shp75, 2uM, 6 h, n3
  Wound area (Fold): 0.836 Fold
A875 shp75, 2uM, 9 h, Mean
  Wound area (Fold): 0.814 Fold
A875 shp75, 2uM, 9 h, n1
  Wound area (Fold): 0.821 Fold
A875 shp75, 2uM, 9 h, n2
  Wound area (Fold): 0.8359 Fold
A875 shp75, 2uM, 9 h, n3
  Wound area (Fold): 0.7843 Fold
A875 shp75, 2uM, 12 h, Mean
  Wound area (Fold): 0.777 Fold
A875 shp75, 2uM, 12 h, n1
  Wound area (Fold): 0.789 Fold
A875 shp75, 2uM, 12 h, n2
  Wound area (Fold): 0.7939 Fold
A875 shp75, 2uM, 12 h, n3
  Wound area (Fold): 0.7491 Fold
A875 shp75, 2uM, 15 h, Mean
  Wound area (Fold): 0.752 Fold
A875 shp75, 2uM, 15 h, n1
  Wound area (Fold): 0.7699 Fold
A875 shp75, 2uM, 15 h, n2
  Wound area (Fold): 0.7822 Fold
A875 shp75, 2uM, 15 h, n3
  Wound area (Fold): 0.7049 Fold
A875 shp75, 2uM, 18 h, Mean
  Wound area (Fold): 0.727 Fold
A875 shp75, 2uM, 18 h, n1
  Wound area (Fold): 0.7451 Fold
A875 shp75, 2uM, 18 h, n2
  Wound area (Fold): 0.762 Fold
A875 shp75, 2uM, 18 h, n3
  Wound area (Fold): 0.6733 Fold
A875 shp75, 2uM, 21 h, Mean
  Wound area (Fold): 0.692 Fold
A875 shp75, 2uM, 21 h, n1
  Wound area (Fold): 0.7162 Fold
A875 shp75, 2uM, 21 h, n2
  Wound area (Fold): 0.7095 Fold
A875 shp75, 2uM, 21 h, n3
  Wound area (Fold): 0.6489 Fold
A875 shp75, 2uM, 24 h, Mean
  Wound area (Fold): 0.665 Fold
A875 shp75, 2uM, 24 h, n1
  Wound area (Fold): 0.7012 Fold
A875 shp75, 2uM, 24 h, n2
  Wound area (Fold): 0.6688 Fold
A875 shp75, 2uM, 24 h, n3
  Wound area (Fold): 0.6256 Fold
